Assay results published in patent US11932594B1, “8-((2-hydroxy-5-methylphenyl)diazenyl)naphthalene-1,3-disulfonic acid as an antioxidant compound” (KING FAISAL UNIVERSITY, priority 2023, dated 2024).

Test: DPPH (2,2-diphenyl-1-picrylhydrazyl) in vitro antioxidant test
Type: biochemical
Conditions: 517 nm; for Inhibition (radical scavenging inhibition): 0.2 mL DPPH (0.75 mM) in ethanol, 30 min incubation in the dark
Experimental: The antioxidant properties of the 8-((2-hydroxy-5-methylphenyl)diazenyl)naphthalene-1,3-disulfonic acid were studied by adding 0.2 mL DPPH (0.75 mM)) to compound 8-((2-hydroxy-5-methylphenyl)diazenyl)naphthalene-1,3-disulfonic acid (III) (304) in ethanol. After 30 min of incubation in the dark, the absorbance was read against a blank at 517 nm. Ascorbic acid (vitamin C) was used as standard antioxidants (positive control). A blank sample was prepared by 0.2 ml of DPPH in 3 ml ethanol. A negative control sample was run using ethanol instead of the sample. The radical scavenging inhibition was calculated using the following equation: […]

Structure (SMILES) | Inhibition (radical scavenging inhibition) | antioxidant potential compared to vitamin C (DPPH in vitro test, vitamin C as positive control)
Cc1ccc(O)c(/N=N/c2cccc3cc(S(=O)(=O)O)cc(S(=O)(=O)O)c23)c1 [Product III, 8-((2-hydroxy-5-methylphenyl)diazenyl)naphthalene-1,3-disulfonic acid] | 54% | high potential as an antioxidant compared to vitamin C
O=C1O[C@H]([C@@H](O)CO)C(O)=C1O [vit c, Ascorbic acid, reference compound] | 74% | –
